Consider 1 molecule from patent US20160220626A1, “REVERSAL OF INSULIN RESISTANCE AND DYSLIPIDEMIA IN HIGH-FAT DIET-INDUCED OBESE RAT MODELS BY PHYSALIS MINIMA L. EXTRACT” (priority 2015, published 2016).

Assay type in all cases: in vivo, male Wistar rats
The test system of series [1] is high-fat diet-induced obese rats. Put plainly: Liver toxicity assessment after 12 weeks of treatment. The note with it: serum, 150 mg/kg, mean ± SE. The protocol: (§1) Extract supplementation. […] The HF fed rats were then sub-divided into four groups of three rats each, i.e. Group 1, negative control/pathological control, treated with distilled water; Group 2, positive control, treated with 150 mg/kg of standard drug metformin (Met); Groups 3 and 4, treated groups, received the P. minima extract at doses of 150 and 300 mg/kg, respectively. Normal control rats also received distilled water throughout the treatment for a period of 12 weeks. All the groups, except the control group, were on high-fat diet during the treatment period.
(§2) Blood and tissue collection and sample preparation. For biochemical analysis after 16 weeks of experimental diet, the blood samples were taken from the tail vein after an overnight fast, whereas after 12 weeks of treatment period, rats were subjected to anesthesia and blood was drawn by cardiac puncture. Liver and pancreas samples were prepared and stained with hematoxylin and eosin, as described by Castro and co-workers. The liver was excised and fixed in buffered formalin. The sectioned liver tissue segments were stained with hematoxylin-eosin (H-E) and observed under light microscope.
Biochemical measurements. Blood glucose, serum insulin, total cholesterol, triglycerides, HDL, LDL, very low density lipoproteins ([…]), urea, creatnine, aspartate aminotransferase ([…]), alkaline phosphatase (ALP), serum glutamic pyruvic transaminase (SGPT), and direct and total bilirubin were estimated. Fasting blood glucose levels were measured using glucometer (Accu Chek Performa, Australia). Fasting insulin levels were quantified using ultra sensitive rat insulin ELISA kit (Crystal Chem, Downers Grove, USA). Insulin sensitivity was evaluated using Homeostatic Model Assessment (HOMA). Serum total cholesterol, triglycerides, HDL, LDL, VLDL, urea, creatnine, AST, ALP, SGPT, and direct and total bilirubins were analysed using automatic analyser (Hitachi, Roche Diagnostics 902, Tokyo, Japan).
Evaluation of renal and liver toxicity of P. minima extract: Serum urea, creatnine, aspartate aminotransferase ([…]), alkaline phosphatase (ALP), serum glutamic pyruvic transaminase (SGPT), and total and direct bilirubins were measured to evaluate the toxicity of P. minima towards liver and kidney.

Series [2] deals with insulin resistant high-fat diet-induced obese rats. As to the kind of experiment: Extract supplementation in insulin resistant high-fat diet-induced obese rats: body weight, food intake, lipid profile, insulin resistance. The protocol: as §1
Blood and tissue collection and sample preparation. For biochemical analysis after 16 weeks of experimental diet, the blood samples were taken from the tail vein after an overnight fast, whereas after 12 weeks of treatment period, rats were subjected to anesthesia and blood was drawn by cardiac puncture. Liver and pancreas samples were prepared and stained with hematoxylin and eosin, as described by Castro and co-workers. The liver was excised and fixed in buffered formalin. […]
Biochemical measurements. […] Fasting blood glucose levels were measured using glucometer (Accu Chek Performa, Australia). Fasting insulin levels were quantified using ultra sensitive rat insulin ELISA kit (Crystal Chem, Downers Grove, USA). Insulin sensitivity was evaluated using Homeostatic Model Assessment (HOMA).

Series [3] relates to high-fat diet-induced obese rats. Put plainly: Histopathology of liver (H&E staining, light microscopy). Particulars: metformin 150 mg/kg; P. minima 150 and 300 mg/kg; versus pathological control (FIG. 8). As for the experimental part: as §1, §2
Series [4] shares this test system. Put plainly: Renal toxicity assessment after 12 weeks of treatment. Particulars: serum, 150 mg/kg, mean ± SE. As for the experimental part:
as §1
Blood and tissue collection and sample preparation. For biochemical analysis after 16 weeks of experimental diet, the blood samples were taken from the tail vein after an overnight fast, whereas after 12 weeks of treatment period, rats were subjected to anesthesia and blood was drawn by cardiac puncture. […]
Biochemical measurements. […] Fasting blood glucose levels were measured using glucometer (Accu Chek Performa, Australia). Fasting insulin levels were quantified using ultra sensitive rat insulin ELISA kit (Crystal Chem, Downers Grove, USA). Insulin sensitivity was evaluated using Homeostatic Model Assessment (HOMA). Serum total cholesterol, triglycerides, HDL, LDL, VLDL, urea, creatnine, AST, ALP, SGPT, and direct and total bilirubins were analysed using automatic analyser (Hitachi, Roche Diagnostics 902, Tokyo, Japan). […]

For the molecule `CN(C)C(=N)N=C(N)N` [Metformin], in series [1], the ALP was 49.5 ± 1.5 U/L, the “AST (aspartate aminotransferase)” value stood at 1.5 ± 0.5 U/L, the Direct bilirubin is 0.02 ± 0 mg/dL and the SGPT is 48.5 ± 1.5 U/L. Besides, the Total bilirubin in series [1] came out at 0.275 ± 0.025 mg/dL. Further, the “reduction in body weights” value in series [2] (150 mg/kg daily, 12 weeks, on high-fat diet, pathological control gained about 109 g, control 75 g) is around 35 g. In series [2] (supplemented groups, 12 weeks of treatment, high-fat diet rats), the average food intake entry was “Decrease”. Also, the “hepatic steatosis (liver morphology, H&E)” value in series [3] is given as “reversed the condition to the normal”. In series [4], this molecule had a Creatnine of 0.35 ± 0 mg/dL and a Urea of 31 ± 0 mg/dL.
